In PubChem BioAssay (NCI):
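Method: 48-hour compound exposure of cells in 96-well plates, five concentrations, linear interpolation of endpoints. GI50 is the concentration that inhibits growth by half. TGI marks complete inhibition of growth.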

Experiments:
Assay in all cases: inhibition of tumour cell growth, NCI panel, 48 h
786-0 renal = test system: 786-0 renal
CCRF-CEM leukemia = test system: CCRF-CEM leukemia
HCT-15 colon = test system: HCT-15 colon
MDA-MB-435 = test system: MDA-MB-435
OVCAR-8 ovarian = test system: OVCAR-8 ovarian
PC-3 prostate = test system: PC-3 prostate
SF-295 CNS = test system: SF-295 CNS
SK-MEL-5 melanoma = test system: SK-MEL-5 melanoma
SW-620 colon = test system: SW-620 colon
U251 CNS = test system: U251 CNS

SMILES	GI50 (786-0 renal) [µM]	TGI (786-0 renal) [µM]	GI50 (CCRF-CEM leukemia) [µM]	TGI (CCRF-CEM leukemia) [µM]	GI50 (HCT-15 colon) [µM]	TGI (HCT-15 colon) [µM]	GI50 (MDA-MB-435) [µM]	TGI (MDA-MB-435) [µM]	GI50 (OVCAR-8 ovarian) [µM]	TGI (OVCAR-8 ovarian) [µM]	GI50 (PC-3 prostate) [µM]	GI50 (SF-295 CNS) [µM]	TGI (SF-295 CNS) [µM]	GI50 (SK-MEL-5 melanoma) [µM]	TGI (SK-MEL-5 melanoma) [µM]	GI50 (SW-620 colon) [µM]	TGI (SW-620 colon) [µM]	GI50 (U251 CNS) [µM]	TGI (U251 CNS) [µM]	TGI (PC-3 prostate) [µM]
COC(=O)c1cc(-c2ccccc2)[nH]c1N/N=C/c1c(Cl)cccc1Cl	0.41	8.39	0.348	93	0.308	> 36	0.0311	0.119	0.473	> 100	0.41	0.195	0.92	0.335	1.89	0.279	> 38.8	0.332	3.58	–
Cc1ccc(/C=C/c2c(C(=O)/C=C/c3ccccc3)c(C)nc3ccccc23)cc1	1.63	3.05	1.69	> 100	1.32	3.24	2.1	5.59	1.83	5.46	1.84	2.2	5.02	1.71	3.11	1.58	4.61	1.5	2.87	5.05
N#Cc1nc(-c2ccc(F)cc2)oc1S(=O)(=O)N1CCCCC1	1.8	3.53	0.954	> 100	1.59	3.37	1.82	3.75	3.19	24.1	1.81	14.1	27.4	1.81	3.36	1.89	4.11	2.22	5.31	3.7
O=[N+]([O-])c1cc[n+]([O-])c2ccccc12	0.217	0.753	1.55	5.27	0.279	1.42	0.436	1.31	0.33	2.12	0.222	0.2	0.627	0.184	0.437	0.106	0.56	0.298	1.3	2.36
[2H]C([2H])([2H])NC(=O)c1nnc(NC(=O)C2CC2)cc1Nc1cccc(-c2ncn(C)n2)c1OC	28.4	> 100	19.8	> 100	15.5	> 100	56.7	> 100	27.4	> 100	29.5	53.4	> 100	50.2	> 100	41.6	> 100	59.5	> 100	> 100
CO/N=C(\COc1ccc2c(=O)c3ccccc3oc2c1)c1ccccc1	25.4	72.5	> 100	> 100	51.9	> 100	86.7	> 100	30.4	97.2	35	28.7	78.1	38.1	> 100	55.9	> 100	26.6	79.2	> 100
c1ccc(-c2nn3c(c2-c2ccnc4cc(OCCN5CCOCC5)ccc24)CCC3)nc1	> 100	> 100	> 95.9	> 100	31.5	> 100	25.8	> 100	> 82.6	> 100	98.8	> 100	> 100	43.9	> 100	73.2	> 100	97.3	> 100	> 100
OCCCCC#Cc1ccccc1C#Cc1ccc(O)cc1	19.4	36.2	7.35	26.1	14.1	28	16.1	31	17.1	34.9	17.2	16.2	32	17.7	32.2	18.2	37.1	15	29.3	35.2
COc1cc(/C=C/c2ccc(C)cc2)cc(OC)c1OC	–	36.6	–	25.4	–	20.1	–	3.14	–	15.9	–	–	6.53	–	13.3	–	> 68.6	–	23.9	11.4
Cc1ccc(/C=C(\C#N)c2cc3ccccc3n2C)cc1	0.709	> 100	0.355	> 100	0.303	> 100	0.0502	0.334	0.565	> 100	0.403	0.285	1.46	0.647	> 100	0.361	> 100	0.406	> 100	> 100
Cc1ccc(S(=O)(=O)Oc2ccc3c4c(c(=O)oc3c2)CCCCCC4)cc1	> 100	> 100	8.92	> 100	3.16	> 100	> 100	> 100	> 100	> 100	5.97	> 100	> 100	4.45	> 100	2.76	> 100	> 100	> 100	> 100
C#C[C@]1(O)CC[C@H]2[C@@H]3CC=C4c5sc(Nc6cc(F)ccc6F)nc5CC[C@]4(C)[C@H]3CC[C@@]21C	0.415	1.84	0.669	4.81	1.53	4.84	2.07	4.61	2.63	12.1	1.34	0.224	0.592	1.74	3.16	1.78	4.38	0.813	2.43	10.3
COC(C)(C)[C@@H](O)[C@H](O)C[C@H](C)C1=C2CC[C@@H]3[C@@]4(C)CC[C@@H](OC(C)=O)C(C)(C)[C@@H]4C[C@@H](OC4OC(COC(C)=O)C(O)C(O)C4O)[C@@]3(C)[C@]2(C)CC1 (some centres not stated)	14.4	27.5	5.34	19.9	11	23.8	12.3	25.6	12.8	26.3	5.68	11.6	24.1	14.4	27.8	15.7	30.1	–	22.5	18.5
O=[N+]([O-])c1cccc(/C=N/NC2=CS(=O)(=O)C=C2)c1	–	> 100	–	> 100	–	> 100	–	> 100	–	> 100	–	–	> 100	–	> 100	–	> 100	–	> 100	> 100
Fc1ccc(-c2ncn(C3CCNCC3)c2-c2ccnc(Oc3ccc4c(c3)OCO4)n2)cc1	> 23.8	> 25	> 25	> 25	21.1	> 25	> 19.5	> 25	> 25	> 25	> 25	> 20.1	> 25	3.77	8.4	> 25	> 25	15.3	> 25	> 25
COc1ccc2c(c1)/C(=C\c1ccncc1)C(=O)N2	12.5	29.3	3.06	> 100	2.97	13.1	6.57	39.3	10.3	32.7	25	15.7	72.8	13.1	27.6	10.4	43.8	4.32	23.1	> 100
COc1ccc2c(c1)nc(NNC(=O)c1cnccn1)c1cccn12	0.432	2.18	0.0678	> 44.1	0.0631	43	0.338	2.59	0.229	3.05	0.285	0.175	1.76	0.27	1.22	0.403	9.43	0.132	2.86	4.85
COc1ccc(-c2c(C)c(C(=O)O)nc(-c3ccc4c(O)c(OC)c5c(c4n3)=NC(C)(C)N=5)c2N)c(O)c1OC	–	31.6	–	24.4	–	> 100	–	30.7	–	21.5	–	–	38.6	–	25.4	–	35.4	–	25.8	> 100
NC(=N\N=C/c1ccc(O)cc1)/C(N)=N\N=C/c1ccc(O)cc1	21.1	> 100	0.324	> 100	–	> 100	4.88	> 100	51.4	> 100	> 29	3.3	> 100	3.06	73.1	> 23.6	> 100	19.5	> 100	> 100
C=CC(=O)N1CCC(c2ccc(C(N)=O)c(-c3ccc(Oc4ccccc4)cc3)n2)CC1	31.9	> 100	33.9	> 100	25.2	> 100	29.1	> 100	30.9	> 100	29.5	27.3	> 100	20.6	41.9	41.2	> 100	32.4	> 100	> 100
CN(C)c1ccc(Nc2c3ccccc3nc3ccccc23)cc1	1.29	3.13	1.23	15.7	0.959	3.49	0.685	2.33	0.868	3.25	1.34	0.579	2.75	1.03	2.2	0.665	3.67	1.12	2.7	5.41
CCOc1ccc2c(-c3ccnc(Nc4cc(OC)cc(C(F)(F)F)c4)n3)cnn2n1	> 13.3	> 25	> 25	> 25	> 23.3	> 25	0.903	> 10.5	> 15.4	> 25	> 15.5	> 14.6	> 25	> 14.8	> 25	13	> 25	> 13	> 25	> 25
Cc1ccc2nc3ccccc3c(NCc3ccc(Cl)cc3)c2c1	5.53	12.1	2.02	8.95	2.52	8.73	6.49	12.9	5.77	16.6	2.19	5.65	11.7	6	12.3	2.83	9.42	3.85	11.6	8.9
CCCn1c2c(c3c(O)cccc31)C(=O)c1ccccc1-2	14.6	52.2	> 100	> 100	34.1	> 100	> 100	> 100	22.5	> 100	12.6	23	67.8	11.9	> 100	> 100	> 100	18.2	56.2	36
O=C(NCCN1CCOCC1)OCc1nc2nc(Cl)nc(N3CCOCC3)c2[nH]1	23.7	> 100	2.9	> 100	3.09	> 100	0.651	2.94	2.09	> 100	3.38	5.77	> 100	2.1	4.72	2.68	> 100	4.09	> 100	> 100
